Measurements from patent publication US9176064B2, “Bisubstrate fluorescent probes for protein kinase CK2” (University of Tartu, priority 2012, dated 2015).
Blank lines part the entries; values can stand above or below the molecule they belong to. Where a SMILES comes first, the peptide text is derived from it. [ ]: non-standard residue; d: D form. The star is where a group is joined. X2 = CN(C)c1ccc2c(-c3ccc(C(=O)*)cc3C(=O)[O-])c3ccc(=[N+](C)C)cc-3oc2c1; X1 = O=C(CCCCCCCn1cnc2c(Br)c(Br)c(Br)c(Br)c21)*

Tests used:
[1] = target: T1, catalytic subunit of CK2 (CK2α) (Homo sapiens, UniProt P68400); assay: Titration of fluorescent probe with CK2α (fluorescence anisotropy); assay type: binding
T1 sequence (P68400 1-335 limits assumed): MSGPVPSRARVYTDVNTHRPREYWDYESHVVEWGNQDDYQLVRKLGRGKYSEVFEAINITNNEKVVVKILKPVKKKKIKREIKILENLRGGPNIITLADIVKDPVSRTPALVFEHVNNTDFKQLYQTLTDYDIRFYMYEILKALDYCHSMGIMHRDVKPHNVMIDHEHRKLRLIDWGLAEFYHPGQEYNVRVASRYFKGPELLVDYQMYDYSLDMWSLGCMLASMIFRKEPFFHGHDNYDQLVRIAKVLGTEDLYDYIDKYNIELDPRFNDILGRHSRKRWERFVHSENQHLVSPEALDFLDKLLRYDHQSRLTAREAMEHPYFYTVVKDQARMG
Description: The binding of the fluorescent probe of formula VI to the catalytic subunit of protein kinase CK2 (CK2α) was studied at 0.2 nM concentration of the probe and 2-fold dilutions of CK2α in a buffer containing 50 mM HEPES (pH 7.5), 150 mM NaCl, 5 mM DTT, 0.1 mM EDTA and 0.005% tween 20 in 20 μl volumes in 384-well microplate. […] The change in fluorescence anisotropy vs kinase concentration was plotted and KD value was calculated by the application of nonlinear regression analysis to the relationship: A=Af(1−X1)+AbX1, where X1=QX2/[1+X2(Q−1)], where X2={P+KD+kE0−[(P+KD+kE0)^2−4PkE0]^1/2}/2P where A is measured anisotropy, Af is the anisotropy of free probe, Ab is the anisotropy of the probe-CK2α complex, Q is the ratio of fluorescence quantum yield of the probe-CK2α complex and the free probe, P is the concentration of the fluorescent probe, E0 is the nominal concentration of the kinase, k is the fraction of active kinase in enzyme preparation and KD is the dissociation constant of the probe-CK2α complex. Q value of 1.1 was calculated by dividing the total fluorescence intensity of the complex with the total fluorescence intensity of the free probe.

[2] = target: holoenzyme of protein kinase CK2 (CK2α + CK2β) (Homo sapiens, UniProt P68400); assay: biochemical
Description: The binding of the fluorescent probe to the holoenzyme of protein kinase CK2 was studied at 0.2 nM concentration of the probe, 2-fold dilutions of CK2α and 100 nM regulatory subunit of CK2 (CK2β) in a buffer containing 50 mM HEPES (pH 7.5), 150 mM NaCl, 5 mM DTT, 0.1 mM EDTA and 0.005% tween 20 in 20 μl volumes in 384-well microplate. […] The change in fluorescence anisotropy vs kinase concentration was plotted and KD-value was calculated by the application of nonlinear regression analysis to the relationship: A=Af(1−X1)+AbX1, where X1=QX2/[1+X2(Q−1)], where X2={P+KD+kE0−[(P+KD+kE0)^2−4PkE0]^1/2}/2P where A is measured anisotropy, Af is the anisotropy of free probe, Ab is the anisotropy of the probe-CK2 holoenzyme complex, Q is the ratio of fluorescence quantum yield of the probe-CK2 holoenzyme complex and the free probe, P is the concentration of the fluorescent probe, E0 is the nominal concentration of CK2α, k is the fraction of active kinase in enzyme preparation and KD is the dissociation constant of the probe-CK2 holoenzyme complex.

[3] = target: T1, catalytic subunit of CK2 (CK2α); assay: Competition experiment: displacement of fluorescent probe VI from CK2α; assay type: binding; details: for Kd: calculated from I50 and KD of the probe
[4] = fluorescence anisotropy, HEPES pH 7.5, 30° C., probe X also by time gated luminescence, read-out: KD of probe-CK2α complex
[5] = CK2α 0.8 nM, fluorescent probe VI 0.5 nM
[6] = CK2α 2 nM, fluorescent probe VI 3 nM

Sequence of holoenzyme of protein kinase CK2 (CK2α + CK2β) (P68400 whole entry): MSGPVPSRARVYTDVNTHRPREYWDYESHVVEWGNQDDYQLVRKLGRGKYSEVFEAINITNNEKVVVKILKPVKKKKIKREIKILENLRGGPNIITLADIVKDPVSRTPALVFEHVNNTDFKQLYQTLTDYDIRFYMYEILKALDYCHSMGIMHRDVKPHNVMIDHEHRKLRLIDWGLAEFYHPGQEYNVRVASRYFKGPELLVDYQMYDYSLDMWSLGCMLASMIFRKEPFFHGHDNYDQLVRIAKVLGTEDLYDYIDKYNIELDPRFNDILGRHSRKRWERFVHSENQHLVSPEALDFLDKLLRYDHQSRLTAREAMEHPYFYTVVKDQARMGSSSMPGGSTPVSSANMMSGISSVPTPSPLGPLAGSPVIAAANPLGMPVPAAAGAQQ
Sequence of holoenzyme of protein kinase CK2 (CK2α + CK2β) (P67870 whole entry partner): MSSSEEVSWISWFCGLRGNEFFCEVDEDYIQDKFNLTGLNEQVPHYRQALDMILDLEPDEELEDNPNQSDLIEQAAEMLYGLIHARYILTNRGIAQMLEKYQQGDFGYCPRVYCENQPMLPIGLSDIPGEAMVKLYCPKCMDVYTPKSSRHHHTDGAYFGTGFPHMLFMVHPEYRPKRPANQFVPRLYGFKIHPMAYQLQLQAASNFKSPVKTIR

Molecule: CN(C)c1ccc2c(-c3ccc(C(=O)NCCCC[C@H](NC(=O)[C@H](CC(=O)O)NC(=O)[C@H](CC(=O)O)NC(=O)[C@H](CC(=O)O)NC(=O)[C@H](CC(=O)O)NC(=O)[C@H](CC(=O)O)NC(=O)[C@@H](CC(=O)O)NC(=O)CCCCCCCn4cnc5c(Br)c(Br)c(Br)c(Br)c54)C(=O)O)cc3C(=O)[O-])c3ccc(=[N+](C)C)cc-3oc2c1 [probe VII] (X1-[dD]DDDDDK(X2)-OH)
Kd [1, 4]: 0.4 nM

Molecule: CCN1/C(=C/C=C/C=C/C2=[N+](CC)c3ccc(S(=O)(=O)[O-])cc3C2(C)C)C(C)(CCCC(=O)NCCCC[C@H](NC(=O)[C@H](CC(=O)O)NC(=O)[C@H](CC(=O)O)NC(=O)[C@H](CC(=O)O)NC(=O)[C@H](CC(=O)O)NC(=O)[C@H](CC(=O)O)NC(=O)[C@@H](CC(=O)O)NC(=O)CCCCCCCn2cnc3c(Br)c(Br)c(Br)c(Br)c32)C(=O)O)c2cc(S(=O)(=O)O)ccc21 (stereo partly shown) [probe VI]
Kd [1, 4]: 0.4 nM
Kd [2]: 0.2 nM

Molecule: CCN1/C(=C/C=C/C=C/C2=[N+](CC)c3ccc(S(=O)(=O)[O-])cc3C2(C)C)C(C)(CCCC(=O)NCCCC[C@H](NC(=O)[C@H](CC(=O)O)NC(=O)[C@H](CC(=O)O)NC(=O)[C@H](CC(=O)O)NC(=O)[C@H](CC(=O)O)NC(=O)[C@H](CC(=O)O)NC(=O)[C@H](CC(=O)O)NC(=O)CCCCCCCCOc2nc3cc(C(=O)O)ccc3c3cnccc23)C(=O)O)c2cc(S(=O)(=O)O)ccc21 (stereo partly shown) [probe IX]
Kd [1, 4]: 0.02 nM

IC50 [3, 5]: 390 nM
Kd [3, 5]: 122 nM
Molecule: TIBI-AcOH

IC50 [3, 6]: 11500 nM
Kd [3, 6]: 1500 nM
Molecule: TBBI-AcOH

Molecule: CCN1/C(=C/C=C/C=C/C2=[N+](CC)c3ccc(S(=O)(=O)[O-])cc3C2(C)C)C(C)(CCCC(=O)NCCCC[C@H](NC(=O)[C@H](CC(=O)O)NC(=O)[C@H](CC(=O)O)NC(=O)[C@H](CC(=O)O)NC(=O)[C@H](CC(=O)O)NC(=O)[C@H](CC(=O)O)NC(=O)[C@@H](CC(=O)O)NC(=O)CCCCCCCn2cnc3c(I)c(I)c(I)c(I)c32)C(=O)O)c2cc(S(=O)(=O)O)ccc21 (stereo partly shown) [probe VIII]
Kd [1, 4]: 0.4 nM

Molecule: CCN1/C(=C/C=C/C=C/C2=[N+](CC)c3ccc(S(=O)(=O)[O-])cc3C2(C)C)C(C)(CCCC(=O)NCCCC[C@H](NC(=O)[C@H](CC(=O)O)NC(=O)[C@H](CC(=O)O)NC(=O)[C@H](CC(=O)O)NC(=O)[C@H](CC(=O)O)NC(=O)[C@H](CC(=O)O)NC(=O)[C@@H](CC(=O)O)NC(=O)CCCCCCCn2ccc3ccc4n[se]nc4c32)C(=O)O)c2cc(S(=O)(=O)O)ccc21 (stereo partly shown) [probe X]
Kd [1]: 10 nM
